Measurements taken from patent US6054435A, “6-O-substituted macrolides having antibacterial activity” (priority 1999, dated 2000).
≈ marks a conversion by molar mass, not a printed value.

Assays:
Experiment in all cases: in vitro antibacterial activity (MIC), agar dilution
Type in all cases: cell-based
[1] = tested on: Nocardia Asteroides ATCC9970; details: organism code VV; BHI agar, 35-37° C., 20 to 24 hours; unit assumed
Protocol: (§1) Representative compounds of the present invention were assayed in vitro for antibacterial activity as follows: Twelve petri dishes containing successive aqueous dilutions of the test compound mixed with 10 mL of sterilized Brain Heart Infusion (BHI) agar (Difco 0418-01-5) were prepared. Each plate was inoculated with 1:100 (or 1:10 for slow-growing strains, such as Micrococcus and Streptococcus) dilutions of up to 32 different microorganisms, using a Steers replicator block. […] In addition, a control plate, using BHI agar containing no test compound, was prepared and incubated at the beginning and end of each test.
(§2) An additional plate containing a compound having known susceptibility patterns for the organisms being tested and belonging to the same antibiotic class as the test compound was also prepared and incubated as a further control, as well as to provide test-to-test comparability.
(§3) After incubation, each plate was visually inspected. The minimum inhibitory concentration (MIC) was defined as the lowest concentration of drug yielding no growth, a slight haze, or sparsely isolated colonies on the inoculum spot as compared to the growth control.

[2] = tested on: Escherichia coli JUHL; details: organism code QQ; BHI agar, 35-37° C., 20 to 24 hours; unit assumed
Protocol: as §1, §2, §3

[3] = tested on: Candida albicans CCH 442; details: organism code TT; BHI agar, 35-37° C., 20 to 24 hours; unit assumed
Protocol: as §1, §2, §3

[4] = tested on: Staphylococcus aureus ATCC 6538P; details: organism code AA; BHI agar, 35-37° C., 20 to 24 hours; unit assumed
Protocol: as §1, §2, §3

[5] = tested on: Streptococcus agalactiae CMX 508; details: organism code KK; BHI agar, 35-37° C., 20 to 24 hours; unit assumed
Protocol: as §1, §2, §3

[6] = tested on: Streptococcus Pneumonia 5649; details: organism code ZZA; BHI agar, 35-37° C., 20 to 24 hours; unit assumed
Protocol: as §1, §2, §3

[7] = tested on: Enterococcus faecium ATCC 8043; details: organism code II; BHI agar, 35-37° C., 20 to 24 hours; unit assumed
Protocol: as §1, §2, §3

[8] = tested on: Escherichia coli SS; details: organism code RR; BHI agar, 35-37° C., 20 to 24 hours; unit assumed
Protocol: as §1, §2, §3

[9] = tested on: Haemophilis Influenzae DILL AMP R; details: organism code WW; BHI agar, 35-37° C., 20 to 24 hours; unit assumed
Protocol: as §1, §2, §3

[10] = tested on: Escherichia coli DC-2; details: organism code SS; BHI agar, 35-37° C., 20 to 24 hours; unit assumed
Protocol: as §1, §2, §3

[11] = tested on: Streptococcus Pneumonia 5979; details: organism code ZZ; BHI agar, 35-37° C., 20 to 24 hours; unit assumed
Protocol: as §1, §2, §3

[12] = tested on: Streptococcus Pneumonia GYR 1171; details: organism code YY; BHI agar, 35-37° C., 20 to 24 hours; unit assumed
Protocol: as §1, §2, §3

[13] = tested on: Mycobacterium smegmatis ATCC 114; details: organism code UU; BHI agar, 35-37° C., 20 to 24 hours; unit assumed
Protocol: as §1, §2, §3

[14] = tested on: Streptococcus pyogenes PIU 2548; details: organism code NN; BHI agar, 35-37° C., 20 to 24 hours; unit assumed
Protocol: as §1, §2, §3

[15] = tested on: Staphylococcus aureus CMX 642A; details: organism code DD; BHI agar, 35-37° C., 20 to 24 hours; unit assumed
Protocol: as §1, §2, §3

[16] = tested on: Staphylococcus aureus A5177; details: organism code BB; BHI agar, 35-37° C., 20 to 24 hours; unit assumed
Protocol: as §1, §2, §3

[17] = tested on: Staphylococcus aureus NCTC10649M; details: organism code EE; BHI agar, 35-37° C., 20 to 24 hours; unit assumed
Protocol: as §1, §2, §3

[18] = tested on: Staphylococcus aureus CMX 553; details: organism code FF; BHI agar, 35-37° C., 20 to 24 hours; unit assumed
Protocol: as §1, §2, §3

[19] = tested on: Staphylococcus aureus 1775; details: organism code GG; BHI agar, 35-37° C., 20 to 24 hours; unit assumed
Protocol: as §1, §2, §3

[20] = tested on: Staphylococcus aureus A-5278; details: organism code CC; BHI agar, 35-37° C., 20 to 24 hours; unit assumed
Protocol: as §1, §2, §3

[21] = tested on: Streptococcus Pneumonia ATCC6303; details: organism code XX; BHI agar, 35-37° C., 20 to 24 hours; unit assumed
Protocol: as §1, §2, §3

[22] = tested on: Streptococcus bovis A-5169; details: organism code JJ; BHI agar, 35-37° C., 20 to 24 hours; unit assumed
Protocol: as §1, §2, §3

[23] = tested on: Micrococcus luteus ATCC 9341; details: organism code OO; BHI agar, 35-37° C., 20 to 24 hours; unit assumed
Protocol: as §1, §2, §3

[24] = tested on: Micrococcus luteus ATCC 4698; details: organism code PP; BHI agar, 35-37° C., 20 to 24 hours; unit assumed
Protocol: as §1, §2, §3

[25] = tested on: Staphylococcus epidermidis 3519; details: organism code HH; BHI agar, 35-37° C., 20 to 24 hours; unit assumed
Protocol: as §1, §2, §3

[26] = tested on: Streptococcus pyogenes EES61; details: organism code LL; BHI agar, 35-37° C., 20 to 24 hours; unit assumed
Protocol: as §1, §2, §3

[27] = tested on: Streptococcus pyogenes 930; details: organism code MM; BHI agar, 35-37° C., 20 to 24 hours; unit assumed
Protocol: as §1, §2, §3

## CC[C@H]1OC(=O)[C@H](C)C(=O)[C@H](C)[C@@H](O[C@@H]2O[C@H](C)C[C@H](N(C)C)[C@H]2O)[C@](C)(OC/C=C/c2cnc(-c3ncc(Br)s3)s2)C[C@@H](C)C(=O)[C@H](C)[C@H]2NC(=O)O[C@@]21C [Example 56]
[1]
  MIC: 0.39 µg/mL (≈ 0.441 µM)
[2]
  MIC: > 10 µg/mL
[3]
  MIC: > 100 µg/mL
[4]
  MIC: 0.2 µg/mL (≈ 0.226 µM)
[5]
  MIC: 0.05 µg/mL (≈ 0.0566 µM)
[6]
  MIC: 0.25 µg/mL (≈ 0.283 µM)
[7]
  MIC: 0.05 µg/mL (≈ 0.0566 µM)
[8]
  MIC: 0.78 µg/mL (≈ 0.882 µM)
[9]
  MIC: 8 µg/mL (≈ 9.05 µM)
[10]
  MIC: > 100 µg/mL
[11]
  MIC: 4 µg/mL (≈ 4.53 µM)
[12]
  MIC: 0.015 µg/mL (≈ 0.017 µM)
[13]
  MIC: 0.39 µg/mL (≈ 0.441 µM)
[14]
  MIC: 0.39 µg/mL (≈ 0.441 µM)
[15]
  MIC: 0.2 µg/mL (≈ 0.226 µM)
[16]
  MIC: 0.2 µg/mL (≈ 0.226 µM)
[17]
  MIC: 0.39 µg/mL (≈ 0.441 µM)
[18]
  MIC: 0.2 µg/mL (≈ 0.226 µM)
[19]
  MIC: 50 µg/mL (≈ 56.6 µM)
[20]
  MIC: 100 µg/mL (≈ 113 µM)
[21]
  MIC: 0.015 µg/mL (≈ 0.017 µM)
[22]
  MIC: 0.05 µg/mL (≈ 0.0566 µM)
[23]
  MIC: 0.05 µg/mL (≈ 0.0566 µM)
[24]
  MIC: 0.39 µg/mL (≈ 0.441 µM)
[25]
  MIC: 0.2 µg/mL (≈ 0.226 µM)
[26]
  MIC: 0.05 µg/mL (≈ 0.0566 µM)

## CC[C@H]1OC(=O)[C@H](C)C(=O)[C@H](C)[C@@H](O[C@@H]2O[C@H](C)C[C@H](N(C)C)[C@H]2O)[C@](C)(OCC#Cc2ccc(-c3cccc(Cl)c3)s2)C[C@@H](C)C(=O)[C@H](C)[C@H]2NC(=O)O[C@@]21C [Example 16]
[1]
  MIC: 0.2 µg/mL (≈ 0.241 µM)
[2]
  MIC: > 100 µg/mL
[3]
  MIC: > 100 µg/mL
[4]
  MIC: 0.1 µg/mL (≈ 0.121 µM)
[5]
  MIC: 0.02 µg/mL (≈ 0.0241 µM)
[6]
  MIC: 0.25 µg/mL (≈ 0.301 µM)
[7]
  MIC: 0.1 µg/mL (≈ 0.121 µM)
[8]
  MIC: 0.39 µg/mL (≈ 0.47 µM)
[9]
  MIC: 4 µg/mL (≈ 4.82 µM)
[10]
  MIC: > 100 µg/mL
[11]
  MIC: 2 µg/mL (≈ 2.41 µM)
[12]
  MIC: 0.03 µg/mL (≈ 0.0362 µM)
[13]
  MIC: 0.2 µg/mL (≈ 0.241 µM)
[14]
  MIC: 0.2 µg/mL (≈ 0.241 µM)
[15]
  MIC: 0.2 µg/mL (≈ 0.241 µM)
[16]
  MIC: 0.2 µg/mL (≈ 0.241 µM)
[17]
  MIC: 0.2 µg/mL (≈ 0.241 µM)
[18]
  MIC: 0.2 µg/mL (≈ 0.241 µM)
[19]
  MIC: 12.5 µg/mL (≈ 15.1 µM)
[20]
  MIC: 25 µg/mL (≈ 30.1 µM)
[21]
  MIC: 0.03 µg/mL (≈ 0.0362 µM)
[22]
  MIC: 0.02 µg/mL (≈ 0.0241 µM)
[23]
  MIC: 0.02 µg/mL (≈ 0.0241 µM)
[24]
  MIC: 0.2 µg/mL (≈ 0.241 µM)
[25]
  MIC: 0.2 µg/mL (≈ 0.241 µM)
[26]
  MIC: 0.1 µg/mL (≈ 0.121 µM)

## CC[C@H]1OC(=O)[C@H](C)C(=O)[C@H](C)[C@@H](O[C@@H]2O[C@H](C)C[C@H](N(C)C)[C@H]2O)[C@](C)(OC/C=C/c2cncc(-c3cccnc3)c2)C[C@@H](C)C(=O)[C@H](C)[C@H]2NC(=O)O[C@@]21C [Example 47]
[1]
  MIC: 0.05 µg/mL (≈ 0.0631 µM)
[2]
  MIC: 50 µg/mL (≈ 63.1 µM)
[3]
  MIC: > 100 µg/mL
[4]
  MIC: 0.05 µg/mL (≈ 0.0631 µM)
[5]
  MIC: 0.01 µg/mL (≈ 0.0126 µM)
[6]
  MIC: 0.5 µg/mL (≈ 0.631 µM)
[7]
  MIC: 0.05 µg/mL (≈ 0.0631 µM)
[8]
  MIC: 0.39 µg/mL (≈ 0.492 µM)
[10]
  MIC: 25 µg/mL (≈ 31.5 µM)
[11]
  MIC: > 128 µg/mL
[12]
  MIC: 0.008 µg/mL (≈ 0.0101 µM)
[13]
  MIC: 0.78 µg/mL (≈ 0.984 µM)
[14]
  MIC: 0.2 µg/mL (≈ 0.252 µM)
[15]
  MIC: 0.05 µg/mL (≈ 0.0631 µM)
[16]
  MIC: 0.05 µg/mL (≈ 0.0631 µM)
[17]
  MIC: 0.1 µg/mL (≈ 0.126 µM)
[18]
  MIC: 0.05 µg/mL (≈ 0.0631 µM)
[19]
  MIC: > 100 µg/mL
[27]
  MIC: 50 µg/mL (≈ 63.1 µM)
[20]
  MIC: > 100 µg/mL
[21]
  MIC: 0.008 µg/mL (≈ 0.0101 µM)
[22]
  MIC: 0.01 µg/mL (≈ 0.0126 µM)
[23]
  MIC: 0.01 µg/mL (≈ 0.0126 µM)
[24]
  MIC: 0.2 µg/mL (≈ 0.252 µM)
[25]
  MIC: 0.1 µg/mL (≈ 0.126 µM)
[26]
  MIC: 0.02 µg/mL (≈ 0.0252 µM)
